Series [1] is described as follows: Intrinsic clearance in mouse liver microsomes. The note with it: read-out: CLH. Format: ADME, Microsome. For orientation: Microsomes from liver hold many membrane-bound enzymes, among them those of drug oxidation.
A short description of series [2]: Protein binding in human plasma. Format: ADME, cell-free. The note with it: read-out: PPB (converted).
Series [3] can be described thus: Intrinsic clearance in rat liver microsomes. Format: ADME, Microsome. The note with it: read-out: CLH.
Series [4] can be described thus: Protein binding in rat plasma. In kind it is ADME, cell-free. To be noted: read-out: PPB (converted).
Series [5] can be described thus: Intrinsic clearance in human liver microsomes. In kind it is ADME, Microsome. To be noted: read-out: CLH.
Series [6] is described as follows: Lipophilicity, logP of the compound. The note with it: octanol/water.
Series [7] has as its target T1, Mucosa-associated lymphoid tissue lymphoma translocation protein 1 (Homo sapiens, UniProt Q9UDY8).
T1 sequence (Q9UDY8 whole entry): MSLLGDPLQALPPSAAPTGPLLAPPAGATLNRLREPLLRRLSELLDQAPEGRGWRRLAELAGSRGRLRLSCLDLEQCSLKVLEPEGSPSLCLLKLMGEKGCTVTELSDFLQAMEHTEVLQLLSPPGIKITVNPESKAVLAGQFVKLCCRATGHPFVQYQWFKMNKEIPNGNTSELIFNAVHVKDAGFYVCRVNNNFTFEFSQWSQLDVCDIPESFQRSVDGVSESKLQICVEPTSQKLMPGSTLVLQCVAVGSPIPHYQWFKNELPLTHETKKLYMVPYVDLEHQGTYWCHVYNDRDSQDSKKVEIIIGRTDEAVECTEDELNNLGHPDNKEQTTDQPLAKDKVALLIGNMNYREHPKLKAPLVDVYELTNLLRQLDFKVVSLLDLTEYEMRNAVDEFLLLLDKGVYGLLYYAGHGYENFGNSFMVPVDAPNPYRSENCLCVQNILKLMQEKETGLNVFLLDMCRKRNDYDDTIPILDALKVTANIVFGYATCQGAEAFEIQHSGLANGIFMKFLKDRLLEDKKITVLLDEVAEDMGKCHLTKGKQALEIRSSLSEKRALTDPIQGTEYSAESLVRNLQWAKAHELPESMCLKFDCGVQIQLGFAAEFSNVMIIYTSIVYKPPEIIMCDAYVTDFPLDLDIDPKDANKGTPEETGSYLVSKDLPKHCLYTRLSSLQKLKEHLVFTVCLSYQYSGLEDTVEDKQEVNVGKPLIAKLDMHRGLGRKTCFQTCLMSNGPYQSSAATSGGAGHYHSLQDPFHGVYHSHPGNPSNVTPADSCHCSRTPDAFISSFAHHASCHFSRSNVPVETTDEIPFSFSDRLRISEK
Put plainly: Inhibition of MALT1 (unknown origin) using Ac-Trp-Leu-Arg-Ser-Arg^Cys(PT14)-NH2 as substrate preincubated for 60 mins followed by substrate addition and measured after 60 mins by fluorescence assay.

Series [8] can be described thus: Apparent volume of distribution at steady state in Sprague-Dawley rat at 1 mg/kg, iv. Format: ADME, organism-based. The note with it: in vivo, read-out: Vdss(app).
Series [9] can be described thus: AUC (0 to 24 hrs) in Balb/C mouse at 3 mg/kg, po. In kind it is ADME, organism-based. Further details: time < 24 hr, route oral, dose 3 mg/kg. To be noted: in vivo.
Series [10] in a line: Oral bioavailability in Balb/C mouse at 3 mg/kg. In kind it is ADME, organism-based. The note with it: in vivo.
Series [11] can be described thus: Cmax in Balb/C mouse at 3 mg/kg, po. Format: ADME, organism-based. Further details: route oral, dose 3 mg/kg. The note with it: in vivo.
A short description of series [12]: Terminal half life in Sprague-Dawley rat at 1 mg/kg, iv. Format: ADME, organism-based. The note with it: in vivo, read-out: beta t1/2 (converted).
Series [13] is described as follows: Clearance in Balb/C mouse at 1 mg/kg, iv. To be noted: in vivo. Format: ADME, organism-based.
Series [14] can be described thus: Apparent volume of distribution at steady state in Balb/C mouse at 1 mg/kg, iv. Format: ADME, organism-based. The note with it: in vivo, read-out: Vdss(app).
Series [15] is described as follows: Cmax in Sprague-Dawley rat at 3 mg/kg, po. Format: ADME, organism-based. Further details: route oral, dose 3 mg/kg. The note with it: in vivo.
Series [16] is described as follows: Clearance in Sprague-Dawley rat at 1 mg/kg, iv. To be noted: in vivo. In kind it is ADME, organism-based.
A short description of series [17]: AUC (0 to 24 hrs) in Sprague-Dawley rat at 3 mg/kg, po. Format: ADME, organism-based. Further details: time < 24 hr, route oral, dose 3 mg/kg. To be noted: in vivo.
Series [18] is described as follows: Terminal half life in Balb/C mouse at 1 mg/kg, iv. In kind it is ADME, organism-based. To be noted: in vivo, read-out: beta t1/2 (converted).
Series [19] can be described thus: Oral bioavailability in Sprague-Dawley rat at 3 mg/kg. The note with it: in vivo. In kind it is ADME, organism-based.
The nature of series [20]: Clearance in mouse. In kind it is ADME, organism-based. The note with it: in vivo.
Series [21] deals with T1, Mucosa-associated lymphoid tissue lymphoma translocation protein 1. Put plainly: Inhibition of MALT1 in human whole blood assessed as reduction in PMA//anti-CD28 antibody-induced IL2 level pre-incubated for 1 hrs before stimulation with PMA//anti-CD28 antibody by MSD assay. Format: tissue-based.
The target in series [22] is T2, Mucosa-associated lymphoid tissue lymphoma translocation protein 1 (Homo sapiens) (UniProt Q9UDY8).
T2 sequence (whole entry): T1 sequence (Q9UDY8 whole entry)
Put plainly: Ratio of IC50 for inhibition of MALT1 in human whole blood assessed as reduction in PMA//anti-CD28 antibody-induced IL2 level to IC50 for inhibition of MALT1 in PMA-stimulated human Jurkat T cells assessed as reduction in IL2 level. In kind it is tissue-based.

Series [23] is described as follows: Clearance in rat. Format: ADME. To be noted: in vivo.
Series [24] is described as follows: Half life in rat at 1 mg/kg, iv via cassette dosing. Format: ADME, organism-based. The note with it: in vivo.
The nature of series [25]: Clearance in rat at 1 mg/kg, iv via cassette dosing. Format: ADME, organism-based. To be noted: in vivo.
Series [26] in a line: Cmax in blood of OFA rat model of T-cell dependent B cell response at 3 mg/kg, po BID for 4 days starting 2 days prior to immunization and measured after 3 hrs. In kind it is ADME, organism-based. Further details: route oral, dose 3 mg/kg, time 4 day.
Series [27] relates to Rattus norvegicus. Put plainly: Anti-autoimmune disease activity in OFA rat model of T-cell dependent B cell response assessed as reduction in SRBC-induced IgM producing B cells at 10 mg/kg, po BID for 4 days starting 2 days prior to immunization by ex vivo plaque forming assay relative to control. The note with it: 96 h, read-out: INH.
The nature of series [28]: Cmax in blood of OFA rat model of T-cell dependent B cell response at 10 mg/kg, po BID for 4 days starting 2 days prior to immunization and measured after 14 hrs. In kind it is ADME, organism-based. Further details: route oral, time 4 day, dose 10 mg/kg.
Series [29] is described as follows: Cmax in blood of OFA rat model of T-cell dependent B cell response at 3 mg/kg, po BID for 4 days starting 2 days prior to immunization and measured after 14 hrs. In kind it is ADME, organism-based. Further details: route oral, dose 3 mg/kg, time 4 day.
The test system of series [30] is Rattus norvegicus. Nature of the series: Anti-autoimmune disease activity in OFA rat model of T-cell dependent B cell response assessed as reduction in SRBC-induced IgM producing B cells dosed orally twice daily for 4 days starting 2 days prior to immunization by ex vivo plaque forming assay relative to control. Format: functional.
In series [31] the test system is Rattus norvegicus. Put plainly: Anti-autoimmune disease activity in OFA rat model of T-cell dependent B cell response assessed as reduction in SRBC-induced IgM producing B cells at 3 mg/kg, po BID for 4 days starting 2 days prior to immunization by ex vivo plaque forming assay relative to control. To be noted: 96 h, read-out: INH.
Series [32] can be described thus: Cmax in blood of OFA rat model of T-cell dependent B cell response at 10 mg/kg, po BID for 4 days starting 2 days prior to immunization and measured after 3 hrs. Format: ADME, organism-based. Further details: route oral, dose 10 mg/kg, time 4 day.

Here are results for eleven compounds from ChEMBL document CHEMBL4699655, “Optimization of the In Vivo Potency of Pyrazolopyrimidine MALT1 Protease Inhibitors by Reducing Metabolism and Increasing Potency in Whole Blood” (J Med Chem, 2020).

The term logP denotes the decadic logarithm of the partition coefficient of the neutral form, usually between octanol and water. Read a low logP as lower lipophilicity. A word on the IC50: it is the midpoint of a concentration-inhibition curve. What is called AUC is the area under the concentration-time curve, a measure of exposure. A low value points to less exposure. In general, bioavailability refers to dose-corrected exposure relative to a reference, in per cent. A high value points to much systemic uptake. In general, Cmax refers to the maximum level reached in the sampled fluid or tissue. Broadly, the clearance is the rate of elimination divided by the concentration. The term ED50 denotes the midpoint of the dose-response relation.

Some results are limits rather than exact numbers.

Regarding `COC[C@H](C)c1c(NC(=O)Nc2cnc(-n3nccn3)c(Cl)c2)cnc2cc(Cl)nn12`, the results for the microsomal CLint in [1], in series [3] and in [5] were below 25 µL/min/mg, 60.9 µL/min/mg and 81.4 µL/min/mg, respectively. For the same compound, the fraction unbound in series [2] is 0.014; in [4], 0.012. Besides, in series [6], the logP worked out at 3.4.
For the compound `CC(C)c1c(NC(=O)Nc2ccnc(C(F)(F)F)c2)cnc2cc(Cl)nn12`, the microsomal CLint in series [3] was below 25 µL/min/mg; in [5] it was 61 µL/min/mg.
Consider `COCc1c(NC(=O)Nc2cnc(-n3nccn3)c(Cl)c2)cnc2cc(Cl)nn12`, for which the fraction unbound in [2] was 0.019; in [4] it was 0.035. Further, the microsomal CLint in series [3] and in series [5] was below 25 µL/min/mg each time. In series [6], the lipophilicity (logP) worked out at 3.
As for `CO[C@H](C)c1c(NC(=O)Nc2cnc(-n3nccn3)c(Cl)c2)cnc2cc(Cl)nn12`, the values for the fraction unbound in [2] and in series [4] were 0.023 and 0.032, respectively. The microsomal CLint in series [3] is below 25 µL/min/mg.
The compound `Cc1c(NC(=O)Nc2ccnc(C(F)(F)F)c2)cnc2cc(Cl)nn12` yielded an IC50 in series [7] of 998 nM. Further, the microsomal CLint in [3] and in series [5] was below 25 µL/min/mg in each case.
With `CO[C@@H](C)c1c(NC(=O)Nc2ccnc(C(F)(F)F)c2)cnc2cc(Cl)nn12`, the values for the Vd in series [8] and in [14] were 5.3 L/kg and 3 L/kg, respectively. Also, the figures for the AUC in [9] and in series [17] were 2.3 µM·h and 13.4 µM·h, respectively. Besides, the microsomal CLint in series [1], in series [3] and in series [5] was below 25 µL/min/mg each time. For the same compound, the figures for the bioavailability in series [10] and in series [19] were 50% and 86%, respectively. For the same compound, the maximum concentration (Cmax) in series [11] is 500 nM; in series [15], 700 nM. Further, the fraction unbound is 0.038 in series [2] and 0.027 in [4]. In addition, the half-life is 576 min in [12] and 72 min in [18]. Also, the results for the clearance in series [13] and in series [16] were 28 mL/min/kg and 9 mL/min/kg, respectively.
Consider `O=C(Nc1cnc(-n2nccn2)c(Cl)c1)Nc1cnc2cc(Cl)nn2c1C1CC1`, for which the microsomal CLint was below 25 µL/min/mg in series [1], 50.4 µL/min/mg in series [3] and below 25 µL/min/mg in [5]. In addition, the figures for the fraction unbound in [2] and in series [4] were below 0.01 and 0.013, respectively. For the same compound, in series [6], the logP came out at 3.2.
`C[C@H]1COC[C@H](C)N1c1c(NC(=O)Nc2ccnc(C(F)(F)F)c2)cnc2cc(Cl)nn12`: the clearance in [20] came to 15 mL/min/kg; in series [23], 25 mL/min/kg; in series [25], 46 mL/min/kg. Also, the IC50 in [21] is 9 µM. Also, in [22], the Ratio IC50 came to 50. In addition, in series [5], the microsomal CLint came out at 114 µL/min/mg. The compound also gave a half-life in [24] of 198 min.
For `O=C(Nc1cnc(-n2nccn2)c(Cl)c1)Nc1cnc2cc(Cl)nn2c1C1CCOCC1`, the fraction unbound in series [2] was 0.012; in series [4], 0.023. Also, the microsomal CLint in series [3] was 25.5 µL/min/mg; in series [5] it was below 25 µL/min/mg. In addition, the lipophilicity (logP) in series [6] turned out to be 3.
Regarding `COC[C@@H](C)c1c(NC(=O)Nc2cnc(-n3nccn3)c(Cl)c2)cnc2cc(Cl)nn12`, the fraction unbound is 0.015 in [2] and 0.011 in [4]. In addition, the microsomal CLint in series [3] is 70.1 µL/min/mg; in [5], below 25 µL/min/mg. This compound had a log partition coefficient (logP) in series [6] of 3.4.
For the compound `CC(C)c1c(NC(=O)Nc2cnc(-n3nccn3)c(Cl)c2)cnc2cc(Cl)nn12`, the microsomal CLint in [1], in [3] and in series [5] was below 25 µL/min/mg in each case. The maximum concentration (Cmax) in series [26] was determined as 1500 nM; in series [28] it was 3.3 µM; in series [29], 400 nM; in [32], 7.6 µM. Further, the fraction unbound in series [2] and in series [4] was below 0.01 each time. Further, in the series on Rattus norvegicus [27], the inhibition in vivo at 10 mg/kg was determined as 96%. In the series on Rattus norvegicus [30] (po, 96 h, time 4 day), the ED50 was 3 mg/kg. In the series on Rattus norvegicus [30] (time 4.0 day), the Activity entry was “Dose-dependent effect”. In the series on Rattus norvegicus [31], the inhibition in vivo at 3 mg/kg was found to be 60%. The same compound gave a half-life in series [24] of 324 min. The clearance in [25] came to 18 mL/min/kg. This compound yielded a lipophilicity (logP) in series [6] of 4.
